Results on 19 compounds are retold here after patent US9969726B2, “Metabotropic glutamate receptor negative allosteric modulators (NAMS) and uses thereof” (Sanford-Burnham Medical Research Institute, priority 2014, dated 2018).

The nature of series [1]: Microsomal stability in vitro assay. The class given is in vitro ADME. To be noted: rat liver microsomes 1 mg/mL, 4 μM compound, 2 mM NADPH. On the procedure: Pooled rat liver microsomes (BD Biosciences, #452701) were preincubated with test compounds at 37.5° C. for 5 min in the absence of NADPH. The reaction was initiated by addition of NADPH and incubated under the same conditions. The final incubation concentrations were 4 μM test compound, 2 mM NADPH, and 1 mg/mL (total protein) liver microsomes in phosphate-buffered saline (PBS) at pH 7.4. One aliquot (100 μL) of the incubation mixture was withdrawn at 15 min time points and combined immediately with 100 μL of ACN/MeOH. After mixing, the sample was centrifuged at approximately 13000 rpm for 12 min. The supernatant was filtered and transferred into an autosampler vial and the amount of test compound was quantified using a Shimadzu LCMS 2010EV mass spectrometer. The change of the AUC (area under the curve) of the parent compound as a function of time was used as a measure of microsomal stability. Test compounds were run in duplicate with a positive control.

Series [2] deals with rat mGlu3 receptor (Rattus norvegicus (Rat), UniProt P31422). Description: mGlu3 in vitro GIRK thallium flux assay. The format is cell-based. To be noted: NAM; 2.5 min compound incubation; EC80 glutamate; HEK-293 GIRK cells. Put shortly:
(§1)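 Cells expressing rat mGlu2 or mGlu3 with GIRK, plated overnight at 37 °C. Test compounds (0.3% DMSO, 10-point 1:3 series) preincubated 2.5 or 60 min, then thallium buffer plus EC80 glutamate added. Fluorescence slope 5–15 s after addition, normalised to vehicle and maximal agonist, fitted by four-parameter logistic.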

Series [3] can be described thus: Plasma stability in vitro assay. To be noted: rat plasma, 100 μM, 37.5° C. The class given is in vitro ADME. On the procedure: A 20 μL aliquot of a 10 mM solution in DMSO of the test compound was added to 2.0 mL of heparinized rat plasma (Lampire, P1-150N) to obtain a 100 μM final solution. The mixture was incubated for 1 h at 37.5° C. Aliquots of 100 μL were taken at 15 min intervals and diluted with 100 μL of MeOH/ACN. After mixing, the sample was centrifuged at approximately 13000 rpm for 12 min. The supernatant was filtered and transferred into an autosampler vial and the amount of test compound was quantified using the Shimadzu LCMS-2010EV system. The change of the AUC of the parent compound in function of time was used as a measure of plasma stability.

Series [4] has as its target rat mGlu2 receptor (Rattus norvegicus (Rat), UniProt P31421). Description: mGlu2 in vitro GIRK thallium flux assay. The format is cell-based. To be noted: NAM, EC80 glutamate, HEK-293 GIRK cells. The method in brief: as §1
The mark [5] stands for this setting: 2.5 min compound incubation, read-out: mGlu2 EC50 (μM) (2.5 min).
Setting [6] is: mGlu2 EC50 (μM) (60 min), 60 min compound incubation.
The mark [7] stands for this setting: read-out: mGlu2 EC50 (μM) (60 min), 60 min compound incubation.

Where two headings read alike, the source gives them in different places. Some results are limits rather than exact numbers.

Chain of rat mGlu3 receptor (P31422 23-879): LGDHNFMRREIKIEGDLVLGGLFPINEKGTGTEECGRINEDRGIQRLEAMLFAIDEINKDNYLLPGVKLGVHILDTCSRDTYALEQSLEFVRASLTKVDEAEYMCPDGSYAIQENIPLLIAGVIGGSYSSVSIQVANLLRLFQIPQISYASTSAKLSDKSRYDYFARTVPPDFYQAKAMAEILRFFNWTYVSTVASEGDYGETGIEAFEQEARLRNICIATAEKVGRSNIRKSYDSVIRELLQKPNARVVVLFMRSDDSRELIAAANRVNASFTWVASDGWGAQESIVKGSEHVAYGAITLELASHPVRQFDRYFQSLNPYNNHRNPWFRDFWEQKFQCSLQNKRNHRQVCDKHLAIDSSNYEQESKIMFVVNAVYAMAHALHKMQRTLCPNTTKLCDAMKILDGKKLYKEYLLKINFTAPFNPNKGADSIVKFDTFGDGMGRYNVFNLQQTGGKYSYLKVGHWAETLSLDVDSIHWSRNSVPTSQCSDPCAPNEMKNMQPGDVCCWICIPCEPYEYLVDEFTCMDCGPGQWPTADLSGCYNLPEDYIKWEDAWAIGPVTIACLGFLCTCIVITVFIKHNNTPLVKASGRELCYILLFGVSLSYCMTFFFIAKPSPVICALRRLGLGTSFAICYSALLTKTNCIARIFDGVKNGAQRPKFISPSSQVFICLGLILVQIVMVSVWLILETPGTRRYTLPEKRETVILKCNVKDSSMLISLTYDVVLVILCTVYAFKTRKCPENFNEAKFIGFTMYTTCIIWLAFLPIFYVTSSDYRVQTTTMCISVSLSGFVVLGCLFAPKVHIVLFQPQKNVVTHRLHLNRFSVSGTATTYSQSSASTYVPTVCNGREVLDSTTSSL
Chain of rat mGlu2 receptor (P31421 19-872): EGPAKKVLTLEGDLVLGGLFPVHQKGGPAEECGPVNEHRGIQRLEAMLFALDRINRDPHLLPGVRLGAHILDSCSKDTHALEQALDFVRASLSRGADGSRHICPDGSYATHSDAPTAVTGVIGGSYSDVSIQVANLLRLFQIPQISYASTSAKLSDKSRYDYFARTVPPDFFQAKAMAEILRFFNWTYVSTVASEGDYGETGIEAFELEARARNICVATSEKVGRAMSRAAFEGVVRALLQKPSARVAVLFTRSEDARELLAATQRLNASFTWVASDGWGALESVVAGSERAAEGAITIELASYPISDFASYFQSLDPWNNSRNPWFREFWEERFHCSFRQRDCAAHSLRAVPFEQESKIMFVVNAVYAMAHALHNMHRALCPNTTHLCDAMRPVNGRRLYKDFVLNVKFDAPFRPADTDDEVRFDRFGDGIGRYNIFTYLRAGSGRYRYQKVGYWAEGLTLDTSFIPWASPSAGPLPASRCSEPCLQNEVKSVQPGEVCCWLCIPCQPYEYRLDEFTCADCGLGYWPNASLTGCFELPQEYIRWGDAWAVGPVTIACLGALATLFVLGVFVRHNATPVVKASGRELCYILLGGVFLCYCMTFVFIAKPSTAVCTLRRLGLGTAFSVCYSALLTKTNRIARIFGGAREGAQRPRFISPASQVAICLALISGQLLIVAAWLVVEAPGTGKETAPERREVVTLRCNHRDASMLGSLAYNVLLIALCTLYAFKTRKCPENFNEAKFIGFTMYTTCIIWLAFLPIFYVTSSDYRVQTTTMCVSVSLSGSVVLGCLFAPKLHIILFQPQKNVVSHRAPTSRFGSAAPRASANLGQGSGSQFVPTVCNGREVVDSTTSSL

For `O=C(O)c1cc(-c2cccc(-c3csc(-c4ccccc4)n3)c2)ccc1F` [Example 1, 4-Fluoro-3′-(2-phenylthiazol-4-yl)biphenyl-3-carboxylic Acid], the “Microsomal Stability, Percent Remaining @ 1 hour” value in series [1] was 3%. For the same compound, the 50% effective concentration (EC50) in series [2] is 1.21 µM; in series [4] (setting [5]) it was 0.33 µM; in series [4] (setting [6]), 0.48 µM. Further, the “Plasma Stability, Percent Remaining @ 1 hour” value in series [3] was found to be 93%.
The like results for `O=C(O)c1cc(F)cc(-c2cccc(-c3csc(-c4ccccc4)n3)c2)c1` [Example 9, 5-Fluoro-3′-(2-phenylthiazol-4-yl)biphenyl-3-carboxylic Acid] were, in that order, 4%, over 10 µM, 0.64 µM, 0.35 µM and 98%.
Taken in the same sequence, the figures for `O=C(O)c1cc(-c2cccc(-c3nsc(-c4ccccc4)n3)c2)ccc1F` [Example 38, 4-Fluoro-3′-(5-phenyl-1,2,4-thiadiazol-3-yl)biphenyl-3-carboxylic Acid] were 2%, 0.52 µM, 0.1 µM, 0.05 µM and 65%.
For the compound `O=C(O)c1cc(F)cc(-c2cccc(-c3nc(-c4ccc(C(F)(F)F)nc4)cc(C(F)(F)F)n3)c2)c1` [Example 76, 5-Fluoro-3′-(4-(trifluoromethyl)-6-(6-(trifluoromethyl)pyridin-3-yl)pyrimidin-2-yl)biphenyl-3-carboxylic Acid], in series [1], the “Microsomal Stability, Percent Remaining @ 1 hour” value stood at 95%. Besides, the concentration for a half-maximal effect (EC50) was found to be 1.61 µM in series [2], 1.53 µM in series [4] (setting [5]) and 0.09 µM in series [4] (setting [7]). For the same compound, in series [3], the “Plasma Stability, Percent Remaining @ 1 hour” value was found to be 100%.
The like results for `O=C(O)c1ccc(F)c(-c2cccc(-c3nc(-c4ccc(C(F)(F)F)nc4)cc(C(F)(F)F)n3)c2)c1` [Example 79, 6-Fluoro-3′-(4-(trifluoromethyl)-6-(6-(trifluoromethyl)pyridin-3-yl)pyrimidin-2-yl)biphenyl-3-carboxylic Acid] were, in that order, 82%, 0.89 µM, 0.83 µM, 0.09 µM and 86%.
As for `O=C(O)c1cc(-c2cccc(-c3nc(-c4ccccc4)cc(C(F)(F)F)n3)c2)ccc1F` [Example 86, 4-Fluoro-3′-(4-phenyl-6-(trifluoromethyl)pyrimidin-2-yl)biphenyl-3-carboxylic Acid], in series [1], the “Microsomal Stability, Percent Remaining @ 1 hour” value was determined as 100%. In addition, the concentration for a half-maximal effect (EC50) in series [2] amounted to 0.92 µM; in series [4] (setting [5]), 0.8 µM; in series [4] (setting [7]) it was 0.04 µM. The “Plasma Stability, Percent Remaining @ 1 hour” value in series [3] was 100%.
As for `O=C1CC(c2ccnc(Cl)c2)=Nc2ccc(-c3cc(F)cc(F)c3)cc2N1` [Example 190, 4-(2-Chloropyridin-4-yl)-8-(3,5-difluorophenyl)-1,3-dihydro-2H-benzo[b][1,4]diazepin-2-one], the EC50 in series [2] and in series [4] (setting [5]) was over 10 µM each time.
For the compound `CCOc1ccc(-c2ccc3c(c2)NC(=O)CC(c2ccnc(Cl)c2)=N3)cc1` [Example 192, 4-(2-Chloropyridin-4-yl)-8-(4-ethoxyphenyl)-1,3-dihydro-2H-benzo[b][1,4]diazepin-2-one], the EC50 in series [2] and in series [4] (setting [5]) was over 10 µM in each case.
As to `Cc1cccc(-c2ccc3c(c2)NC(=O)CC(c2ccnc(Cl)c2)=N3)c1` [Example 193, 4-(2-Chloropyridin-4-yl)-8-(m-tolyl)-1,3-dihydro-2H-benzo[b][1,4]diazepin-2-one], the EC50 in series [2] was over 10 µM; in series [4] (setting [5]), over 10 µM; in series [4] (setting [7]), 0.95 µM.
For the compound `O=C1CC(c2ccnc(Br)c2)=Nc2ccc(-c3ccc(C(F)(F)F)cc3C(F)(F)F)cc2N1` [Example 194, 8-(2,4-Bis(trifluoromethyl)phenyl)-4-(2-bromopyridin-4-yl)-1,3-dihydro-2H-benzo[b][1,4]diazepin-2-one], the EC50 in series [2] was over 10 µM; in series [4] (setting [5]), over 10 µM; in series [4] (setting [7]), 3.47 µM.
For the compound `COc1ccc(-c2ccc3c(c2)NC(=O)CC(c2ccnc(Cl)c2)=N3)cc1OC` [Example 195, 4-(2-Chloropyridin-4-yl)-8-(3,4-dimethoxyphenyl)-1,3-dihydro-2H-benzo[b][1,4]diazepin-2-one], the figures for the concentration for a half-maximal effect (EC50) in series [2], in series [4] (setting [5]) and in series [4] (setting [7]) were 1.39 µM, 3.83 µM and 2.62 µM, respectively.
With `Cc1cc(Cl)ccc1-c1ccc2c(c1)NC(=O)CC(c1ccnc(Cl)c1)=N2` [Example 196, 8-(4-Chloro-2-methylphenyl)-4-(2-chloropyridin-4-yl)-1,3-dihydro-2H-benzo[b][1,4]diazepin-2-one], the concentration for a half-maximal effect (EC50) in series [2] was determined as 2.94 µM; in series [4] (setting [5]) it was 3.59 µM; in series [4] (setting [7]), 0.6 µM.
Consider `O=C1CC(c2ccnc(Cl)c2)=Nc2ccc(-c3ccccc3)cc2N1` [Example 197, 4-(2-Chloropyridin-4-yl)-8-phenyl-1,3-dihydro-2H-benzo[b][1,4]diazepin-2-one], for which the concentration giving a half-maximal response (EC50) in series [2] and in series [4] (setting [5]) was over 10 µM throughout.
On to `O=C1CC(c2ccnc(-c3ccccc3)c2)=Nc2ccc(C(F)(F)F)cc2N1` [Example 198, 4-(2-Phenylpyridin-4-yl)-8-(trifluoromethyl)-1,3-dihydro-2H-benzo[b][1,4]diazepin-2-one], for which the values for the EC50 in series [2], in series [4] (setting [5]) and in series [4] (setting [7]) were 0.46 µM, over 10 µM and 0.26 µM, respectively.
As to `O=C1CC(c2ccnc(Cl)c2)=Nc2ccc(-c3ccc(Br)nc3)cc2N1` [Example 199, 8-(6-Bromopyridin-3-yl)-4-(2-chloropyridin-4-yl)-1,3-dihydro-2H-benzo[b][1,4]diazepin-2-one], the concentration for a half-maximal effect (EC50) worked out at 1.82 µM in series [2], 1.7 µM in series [4] (setting [5]) and 4.27 µM in series [4] (setting [7]).
Taken in the same sequence, the figures for `O=C1CC(c2ccnc(-c3ccccc3F)c2)=Nc2ccc(C(F)(F)F)cc2N1` [Example 200, 4-(2-(2-Fluorophenyl)pyridin-4-yl)-8-(trifluoromethyl)-1,3-dihydro-2H-benzo[b][1,4]diazepin-2-one] were 0.75 µM, over 10 µM and 0.22 µM.
Taken in the same sequence, the figures for `O=C1CC(c2ccnc(Cl)c2)=Nc2ccc(-c3ccc(C(F)(F)F)cc3F)cc2N1` [Example 201, 4-(2-Chloropyridin-4-yl)-8-(2-fluoro-4-(trifluoromethyl)phenyl)-1,3-dihydro-2H-benzo[b][1,4]diazepin-2-one] were 1.61 µM, over 10 µM and 0.52 µM.
Taken in the same sequence, the figures for `Cc1cc2c(cc1C(F)(F)F)NC(=O)CC(c1cccc(C#Cc3ccccc3)c1)=N2` [Example 202, 7-Methyl-4-(3-phenylethynyl-phenyl)-8-trifluoromethyl-1,3-dihydro-benzo[b][1,4]diazepin-2-one] were over 10 µM, over 10 µM and over 10 µM.
Take `Cc1cc2c(cc1C(F)(F)F)NC(=O)CC(c1cccc(C#CCO)c1)=N2` [Example 203, 4-[3-(3-Hydroxy-prop-1-ynyl)-phenyl]-7-methyl-8-trifluoromethyl-1,3-dihydro-benzo[b][1,4]diazepin-2-one]: the EC50 in series [2] was found to be 0.39 µM; in series [4] (setting [5]), 0.65 µM; in series [4] (setting [7]) it was 0.02 µM.

As usually defined, the EC50 is the concentration giving half of the maximal effect.
